From ChEMBL document CHEMBL3243921, “2-Pyrrolidinylideneureas, a new class of central nervous system agents” (J Med Chem, 1978)
Active and inactive are the calls of the source.

Legend:
Mus musculus [1] = assay: Muscle relaxant activity in po dosed mouse assessed as increase in strychnine-induced persistant convulsive threshold; type: functional
Mus musculus [2] = assay: Muscle relaxant activity in po dosed mouse assessed as blockade of pentylenetetrazol-induced tonic extensor seizure; type: functional
Mus musculus [3] = assay: Anticonvulsant activity in po dosed mouse assessed as blockade of supramaximal electroshock-induced […] seizure; type: functional
Mus musculus [4] = assay: Hypnotic activity in po dosed mouse assessed as increase in pentylenetetrazol-induced persistent-convulsive threshold; type: functional, organism-based
Mus musculus [5] = assay: Sedative-hypnotic activity in po dosed mouse assessed as increase in pentylenetetrazol-induced persistent-convulsive threshold; type: functional, organism-based
Rattus norvegicus = assay: Antianxiety activity in ip dosed rat assessed as effect on increase in punished responses administered qd for 5 days measured every day for 5 days; type: functional

Structure (SMILES)	Activity (Mus musculus [1])	Activity (Mus musculus [2])	Activity (Mus musculus [3])	Activity (Mus musculus [4])	Activity (Mus musculus [5])	Activity (Rattus norvegicus)
CN1CC(C)(C)C/C1=N\C(=O)Nc1cccc(Cl)c1	inactive	inactive	inactive	inactive	inactive	inactive
CN1CCCC/C1=N\C(=O)Nc1ccccc1	inactive	inactive	inactive	inactive	inactive	inactive
Cc1cccc(C)c1NC(=O)/N=C1\CCCCCN1C	inactive	inactive	inactive	inactive	inactive	inactive
CC1/C(=N\C(=O)Nc2cccc(Cl)c2)N(C)CC1c1ccccc1 (stereo unspecified)	inactive	inactive	inactive	inactive	inactive	inactive
CN1CCCCC/C1=N\C(=O)Nc1c(Cl)cccc1Cl	inactive	inactive	inactive	inactive	inactive	inactive
CN1CC(c2ccccc2)C/C1=N\C(=O)Nc1ccccc1 (stereo unspecified)	inactive	inactive	inactive	inactive	inactive	inactive
CCOc1ccccc1NC(=O)/N=C1\CCCN1C	Active	Active	Active	Active	Active	Active
O=C(/N=C1\CCCCCN1)Nc1c(Cl)cccc1Cl	inactive	inactive	inactive	inactive	inactive	inactive
CN1CC(c2ccccc2)C/C1=N\C(=O)Nc1cccc(Cl)c1 (stereo unspecified)	inactive	inactive	inactive	inactive	inactive	inactive
CN1CCC/C1=N\C(=O)Nc1ccccc1C(F)(F)F	Active	Active	Active	Active	Active	Active
Cc1cccc(C)c1NC(=O)/N=C1\CCC(C)N1C (stereo unspecified)	inactive	inactive	inactive	inactive	inactive	inactive
CN1CCC/C1=N\C(=O)Nc1ccccc1Cl	Active	Active	Active	Active	Active	Active
O=C(/N=C1\CCCN1Cc1ccccc1)Nc1cccc(Cl)c1	inactive	inactive	inactive	inactive	inactive	inactive
O=C(/N=C1\CCCN1Cc1ccccc1)Nc1cccc(C(F)(F)F)c1	inactive	inactive	inactive	inactive	inactive	inactive
CN1CC(c2ccccc2)C/C1=N\C(=O)Nc1c(Cl)cccc1Cl (stereo unspecified)	inactive	inactive	inactive	inactive	inactive	inactive
Cc1cccc(C)c1NC(=O)/N=C1\CC(c2ccccc2)CN1C (stereo unspecified)	inactive	inactive	inactive	inactive	inactive	inactive
